Paper PMC8025302, “Structural and biophysical characterization of the tandem substrate-binding domains of the ABC importer GlnPQ” (Open Biology, 2021)
“And” between values parts separate entries of the source, which are not always exact repeats. Equal values may be shown once.

Key:
SBD1-2(D417F) = target: T1, SBD1-2(D417F) (Lactococcus lactis, UniProt Q9CES5, D417F); test: Isothermal titration calorimetry, tandem variant with inactive SBD2; details: binding to SBD1 in SBD1-2(D417F) (inactive SBD2); ITC
T1 sequence (Q9CES5 27-484 D417F): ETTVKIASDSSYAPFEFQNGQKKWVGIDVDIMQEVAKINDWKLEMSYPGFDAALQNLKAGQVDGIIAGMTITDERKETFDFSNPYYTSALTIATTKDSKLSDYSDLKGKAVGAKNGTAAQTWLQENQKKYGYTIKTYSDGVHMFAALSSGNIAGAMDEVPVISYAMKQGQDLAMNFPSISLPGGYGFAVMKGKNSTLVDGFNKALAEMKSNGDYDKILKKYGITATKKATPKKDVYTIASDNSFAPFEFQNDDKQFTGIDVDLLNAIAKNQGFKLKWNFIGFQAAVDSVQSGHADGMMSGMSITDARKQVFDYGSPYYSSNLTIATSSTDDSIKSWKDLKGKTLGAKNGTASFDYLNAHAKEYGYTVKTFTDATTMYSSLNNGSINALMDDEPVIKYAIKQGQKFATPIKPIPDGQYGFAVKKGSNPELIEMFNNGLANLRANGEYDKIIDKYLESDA

SBD1 in SBD1-Δ5-SBD2 = target: T2, SBD1 in SBD1-Δ5-SBD2 (Lactococcus lactis, UniProt Q9CES5, DEL252-256); test: Isothermal titration calorimetry, SBD1 site of linker deletion mutant; format: binding; details: ITC
T2 sequence (Q9CES5 27-484 DEL252-256): T1 sequence (Q9CES5 27-484 D417F)

[1] = target: T3, SBD1^A (SBD1(T159C/G87C)) (Lactococcus lactis, UniProt Q9CES5, T159C, form not given); test: smFRET / ALEX spectroscopy titration, single SBD1^A; format: binding; details: single domain SBD1^A, Alexa Fluor 555/647, read-out: apparent KD
T3 sequence (Q9CES5 29-251 T159C): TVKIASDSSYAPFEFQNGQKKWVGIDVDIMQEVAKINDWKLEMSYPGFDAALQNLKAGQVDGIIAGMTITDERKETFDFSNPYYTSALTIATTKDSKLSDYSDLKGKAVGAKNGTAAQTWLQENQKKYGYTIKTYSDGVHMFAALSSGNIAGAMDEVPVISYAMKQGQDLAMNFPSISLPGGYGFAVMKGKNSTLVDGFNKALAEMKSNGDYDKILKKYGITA

SBD1^A-2 = target: T4, SBD1^A-2 (Lactococcus lactis, UniProt Q9CES5, T159C, form not given); test: smFRET / ALEX spectroscopy titration, tandem SBD1^A-2; format: binding; details: Alexa Fluor 555/647, read-out: apparent KD
T4 sequence (Q9CES5 27-484 T159C): T1 sequence (Q9CES5 27-484 D417F)

SBD1(E184W)-2 = target: T5, SBD1(E184W)-2 (Lactococcus lactis, UniProt Q9CES5, E184W); test: Isothermal titration calorimetry, tandem variant with inactive SBD1; details: binding to SBD2 in SBD1-2(E184W) (inactive SBD1); ITC
T5 sequence (Q9CES5 27-484 E184W): T1 sequence (Q9CES5 27-484 D417F)

SBD2 in SBD1-Δ5-SBD2 = target: T6, SBD2 in SBD1-Δ5-SBD2 (Lactococcus lactis, UniProt Q9CES5, DEL252-256); test: Isothermal titration calorimetry, SBD2 site of linker deletion mutant; format: binding; details: SBD1-Δ5-SBD2, high-affinity site (SBD2), no asparagine; ITC figure 6f
T6 sequence (Q9CES5 27-484 DEL252-256): T1 sequence (Q9CES5 27-484 D417F)

[2] = target: T7, SBD2^C (SBD2(T369C/S451C)) (Lactococcus lactis, UniProt Q9CES5, S451C/T369C); test: smFRET / ALEX spectroscopy titration, single SBD2^C; format: binding; details: single domain SBD2^C, Alexa Fluor 555/647, read-out: apparent KD
T7 sequence (Q9CES5 255-484 T369C/S451C): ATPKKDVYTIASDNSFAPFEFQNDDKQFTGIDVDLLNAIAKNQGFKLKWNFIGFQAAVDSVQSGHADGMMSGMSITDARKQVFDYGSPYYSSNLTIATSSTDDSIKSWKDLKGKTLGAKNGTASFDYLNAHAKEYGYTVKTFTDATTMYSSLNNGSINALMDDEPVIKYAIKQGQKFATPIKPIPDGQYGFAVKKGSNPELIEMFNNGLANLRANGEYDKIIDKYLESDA

SBD1-2^C = target: T8, SBD1-2^C (Lactococcus lactis, UniProt Q9CES5, S451C/T369C); test: smFRET / ALEX spectroscopy titration, tandem SBD1-2^C; format: binding; details: Alexa Fluor 555/647, read-out: apparent KD
T8 sequence (Q9CES5 27-484 T369C/S451C): T1 sequence (Q9CES5 27-484 D417F)

| Compound | Kd (SBD1-2(D417F)) | Kd (SBD1 in SBD1-Δ5-SBD2) | Kd [1] | Kd (SBD1^A-2) | Kd (SBD1(E184W)-2) | Kd (SBD2 in SBD1-Δ5-SBD2) | Kd [2] | Kd (SBD1-2^C) |
| --- | --- | --- | --- | --- | --- | --- | --- | --- |
| NC(=O)C[C@H](N)C(=O)O [asparagine] | 0.4 ± 0.06 µM | 0.06 µM | 0.14 µM | 0.075 µM | – | – | – | – |
| NC(=O)CC[C@H](N)C(=O)O [glutamine] | – | 25.8 µM and 19 µM | 130 µM | 300 µM | 1.5 ± 0.8 µM | 1.7 µM | 1.5 µM and ~1.5 µM | 0.9 µM and ~0.9 µM |
